Results published in PMC11637438, “Chickpea NCR13 disulfide cross-linking variants exhibit profound differences in antifungal activity and modes of action” (PLOS Pathogens, 2024).
Where two headings read alike, the source gives them in different places. Peptide text beside a SMILES is read from it.

Tested on: B. cinerea
Format: cell-based, Botrytis cinerea
Description: B. cinerea strain T4 was cultured in V8 medium for 3 weeks at 25°C. Fungal spores were collected by flooding the fungal growth plates with water and scraped using a sterile spreader. The spore suspension was filtered through two layers of Miracloth, followed by centrifugation at 12,000 g for 2 minutes (min) and subsequently washed twice with sterile water. Lastly, fungal spores were resuspended in Synthetic Fungal Media (SFM). The spore suspension was adjusted to the desired spore density of about 10^5 spores/mL using a hemocytometer. Fusarium virguliforme (F. virguliforme) was grown and maintained regularly in potato dextrose agar (PDA) (Difco Laboratories) medium. Two weeks old F. virguliforme plates were used to collect spores as described above for B. cinerea followed by centrifugation and washing steps. Spores were counted using a hemocytometer and adjusted to the final concentration of 10^5 spores/mL in 2X SFM media. Sclerotinia sclerotiorum obtained from the field of pennycress in Illinois was grown on PDA medium at room temperature.
The antifungal activity of NCR13 against fungal pathogens was determined using the resazurin cell viability assay, as described previously. Briefly, 45 μL of each peptide dilution (0, 0.09, 0.1875, 0.375, 0.75, 1.5, 3, and 6 μM) was added to each well of the microtiter plate containing 45 μL (~10^5 spores/mL) of spore suspension. Three biological replicates were used for each treatment and the experiments were repeated three times. Resazurin at 0.1% (w/v) was added to each well after incubation for 48 h. Images were taken at ~24 h. The Minimum Inhibitory Concentration (MIC) for each peptide denotes the lowest concentration at which the peptide halts the growth of fungus evident through a lack of color change from blue to […]. The in vitro antifungal activity of NCR13_PFVs against S. sclerotiorum was determined using a 24-well plate assay as previously described. Mycelial plugs (1 mm in diameter) cut from the growing edge of the two day-old actively growing colony were transferred from PDA media to a series of wells containing 250 μL of SFM.

Row | SMILES | Minimal Inhibitory Concentration (MIC) (B. cinerea, resazurin assay in SFM, ~10^5 spores/mL, resazurin added after 48 h, three biological replicates) | Minimal Inhibitory Concentration (MIC) (48 h) | fold reduction in antifungal activity relative to NCR13_CS (B. cinerea, reduced peptides)
1 | CC(C)[C@H](NC(=O)[C@H](CCCCN)NC(=O)[C@@H]1CCCN1C(=O)[C@H](CCCCN)NC(=O)[C@H](CCCNC(=N)N)NC(=O)[C@H](CS)NC(=O)[C@H](C)NC(=O)[C@H](Cc1ccccc1)NC(=O)[C@H](CCCCN)NC(=O)[C@@H](N)CCCCN)C(=O)N1CCC[C@H]1C(=O)N[C@@H](CCCCN)C(=O)N[C@@H](CS)C(=O)O [NCR13 active motif] (H-KKFACRKPKVPKC-OH; N-terminus and C-terminus assumed) | 3 µM | – | –
2 | CC[C@H](C)[C@H](NC(=O)[C@H](CS)NC(=O)[C@H](CCCCN)NC(=O)[C@@H]1CCCN1C(=O)[C@@H](NC(=O)[C@H](CCCCN)NC(=O)[C@@H]1CCCN1C(=O)[C@H](CCCCN)NC(=O)[C@H](CCCNC(=N)N)NC(=O)[C@H](CS)NC(=O)[C@H](C)NC(=O)[C@H](Cc1ccccc1)NC(=O)[C@H](CCCCN)NC(=O)[C@H](CCCCN)NC(=O)[C@H](CS)NC(=O)[C@H](C)NC(=O)[C@H](C)NC(=O)[C@H](C)NC(=O)[C@H](C)NC(=O)[C@H](C)NC(=O)[C@H](CS)NC(=O)[C@@H]1CCCN1C(=O)[C@H](CCCCN)NC(=O)[C@@H](N)[C@@H](C)O)C(C)C)C(=O)N[C@@H](CC(N)=O)C(=O)NCC(=O)N[C@@H](Cc1ccccc1)C(=O)N[C@@H](CS)C(=O)N[C@@H](CCCCN)C(=O)N[C@@H](CS)C(=O)N[C@H](C(=O)N[C@@H](CCCNC(=N)N)C(=O)O)C(C)C [NCR13_AlaV1] (H-TKPCAAAAACKKFACRKPKVPKCINGFCKCVR-OH; N-terminus and C-terminus assumed) | – | 6 µM | 2 fold
3 | CC[C@H](C)[C@H](NC(=O)[C@H](CS)NC(=O)[C@H](CCCCN)NC(=O)[C@@H]1CCCN1C(=O)[C@@H](NC(=O)[C@H](CCCCN)NC(=O)[C@@H]1CCCN1C(=O)[C@H](CCCCN)NC(=O)[C@H](CCCNC(=N)N)NC(=O)[C@H](CS)NC(=O)[C@H](C)NC(=O)[C@H](C)NC(=O)[C@H](C)NC(=O)[C@H](C)NC(=O)[C@H](CS)NC(=O)[C@H](CC(=O)O)NC(=O)[C@H](CCCCN)NC(=O)[C@H](CC(=O)O)NC(=O)[C@H](CO)NC(=O)[C@H](CCC(N)=O)NC(=O)[C@H](CS)NC(=O)[C@@H]1CCCN1C(=O)[C@H](CCCCN)NC(=O)[C@@H](N)[C@@H](C)O)C(C)C)C(=O)N[C@@H](CC(N)=O)C(=O)NCC(=O)N[C@@H](Cc1ccccc1)C(=O)N[C@@H](CS)C(=O)N[C@@H](CCCCN)C(=O)N[C@@H](CS)C(=O)N[C@H](C(=O)N[C@@H](CCCNC(=N)N)C(=O)O)C(C)C [NCR13_AlaV2] (H-TKPCQSDKDCAAAACRKPKVPKCINGFCKCVR-OH; N-terminus and C-terminus assumed) | – | > 12 µM | –
4 | CC[C@H](C)[C@H](NC(=O)[C@H](CS)NC(=O)[C@H](C)NC(=O)[C@H](C)NC(=O)[C@H](C)NC(=O)[C@H](CCCCN)NC(=O)[C@@H]1CCCN1C(=O)[C@H](CCCCN)NC(=O)[C@H](CCCNC(=N)N)NC(=O)[C@H](CS)NC(=O)[C@H](C)NC(=O)[C@H](Cc1ccccc1)NC(=O)[C@H](CCCCN)NC(=O)[C@H](CCCCN)NC(=O)[C@H](CS)NC(=O)[C@H](CC(=O)O)NC(=O)[C@H](CCCCN)NC(=O)[C@H](CC(=O)O)NC(=O)[C@H](CO)NC(=O)[C@H](CCC(N)=O)NC(=O)[C@H](CS)NC(=O)[C@@H]1CCCN1C(=O)[C@H](CCCCN)NC(=O)[C@@H](N)[C@@H](C)O)C(=O)N[C@@H](CC(N)=O)C(=O)NCC(=O)N[C@@H](Cc1ccccc1)C(=O)N[C@@H](CS)C(=O)N[C@@H](CCCCN)C(=O)N[C@@H](CS)C(=O)N[C@H](C(=O)N[C@@H](CCCNC(=N)N)C(=O)O)C(C)C [NCR13_AlaV4] (H-TKPCQSDKDCKKFACRKPKAAACINGFCKCVR-OH; N-terminus and C-terminus assumed) | – | > 12 µM | –
